Data: patent publication US10487045B2, “Adamantane derivative and use thereof” (TOHOKU UNIVERSITY, priority 2016, dated 2019)

How the values were obtained:
ob/ob = experiment: Hypoglycemic effect, blood glucose level by assay kit; assay type: in vivo; settings: 1 mg/kg chronic treatment for 4 weeks; effect on and after 3 weeks; vs ob/ob (saline)
Procedure: A hypoglycemic effect by TP-014 was checked by measuring the blood glucose level by an assay kit (manufactured by Technicon International co). The measurement was carried out for 4 weeks. […] As a control, tolbutamide was used. Kir6.2 channel binds to SUR1 ([…]) on the cell membrane to form a channel. Action mechanism is considered due to Kir6.2 channel inhibitory action. Tolbutamide binds to SUR1 to inhibit Kir6.2 channel.

[1] = tested on: WT mice administered with corticosterone; experiment: Anxiety-related behavioral tests (elevated plus-maze, light/dark, marble burying, open field, fear conditioning) in WT mice administered with corticosterone; assay type: in vivo; settings: WT mice + corticosterone 5 mg/kg; TP-014 1 mg/kg oral once a day for 2 weeks; all five tests
Procedure: (§1) Using WT mice (C57BL/6J, Japan SLC, two months old) administered with corticosterone (dose of 5 mg/kg was administered once a day for 2 weeks); and Kir6.1 defective mice administered with corticosterone, as disease model mice showing anxiety-like symptoms, five behavioral tests regarding anxiety-related behavior were conducted. Note that, the Kir6.1 defective mice were obtained from Professor Susumu Seino, School of Medicine of Kobe University (Miki T et al., Nature Medicine 2002, 8, 466-472).
(§2) To the WT mice and Kir6.1 defective mice administered with corticosterone, TP-014 (1 mg/kg) was administered via the oral route once a day for 2 weeks (chronic treatment). As a result, it was confirmed that a significant anxiety symptom acceleration improving effect was obtained. […]
(§3) The time until a mouse placed in a black box (dark place) feels anxiety to light and comes out of the box to a bright place) was measured. […]
(§4) In the cage for housing a mouse is filled with wood chip bedding and 20 marbles are placed such that a mouse can see them. […] The number of marbles buried and hidden in the wood chip bedding is counted. […]
(§5) Using the same test apparatus as in the light/dark test method, a mouse is placed in a dark place, and then, sound (treble) is produced for 30 seconds and thereafter electrical stimulation is given for 3 seconds. […] The immobility time of the mouse is measured. […]

Kir6.2 channel = target: T1, Kir6.2 channel (Mus musculus, UniProt Q61743); experiment: Patch-clamp measurement of outward potassium current in Kir6.2 channel-overexpressing cells; assay type: cell-based; settings: 10 nM TP-014, Kir6.2 channel-overexpressing cells, membrane potential changed toward a plus side
T1 construct: expressed in transfected cells; host or cells: Neuro2A (N2A) cells, transient transfection with pcDNA3.1-Kir6.2 (gift of Dr. Toru Ishizuka, Tohoku University)
T1 sequence (Q61743 1-390): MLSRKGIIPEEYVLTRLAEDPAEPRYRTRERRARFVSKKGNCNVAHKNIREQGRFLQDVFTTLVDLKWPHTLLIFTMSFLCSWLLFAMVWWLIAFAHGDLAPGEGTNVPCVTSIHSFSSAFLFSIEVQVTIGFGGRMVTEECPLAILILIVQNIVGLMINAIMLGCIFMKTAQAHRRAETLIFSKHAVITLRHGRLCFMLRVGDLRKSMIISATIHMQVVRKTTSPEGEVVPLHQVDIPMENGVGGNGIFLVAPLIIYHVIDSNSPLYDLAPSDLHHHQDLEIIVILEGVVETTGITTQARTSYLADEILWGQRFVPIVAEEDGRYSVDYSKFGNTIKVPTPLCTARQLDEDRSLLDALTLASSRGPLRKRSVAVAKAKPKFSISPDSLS
Procedure: Using Kir6.2 channel-overexpressing cells obtained in Test Example 1, potassium current flowing outside from the cells was measured by an ordinary patch-clamp method. ATP-sensitive potassium channel (Kir6.2 channel) was localized in the cell membrane of the nerve cells. If the channel is inhibited and closed, the threshold of the nerve cell membrane rises to produce a state analogous to the state where an action potential is temporarily generated, with the result that potassium current flows out from cells outside and, in place, calcium current flows into the cells from outside. […] This was confirmed by applying immunoblotting (the same conditions as in Test Example 1 were employed except that anti-Kir6.2 channel antibody, n=5) with an anti-Kir6.2 channel antibody (prepared based on a customary method) to Kir6.2 channel-overexpressing cells (prepared by the aforementioned method).

[2] = tested on: Kir6.1 defective mice administered with corticosterone; experiment: Anxiety-related behavioral tests in Kir6.1 defective mice administered with corticosterone; assay type: in vivo; settings: Kir6.1 defective mice + corticosterone; TP-014 1 mg/kg oral once a day for 2 weeks
Procedure: as §1, §2, §3, §4, §5

Kir6.1 defective mice = experiment: Tail-suspension and forced swim methods in Kir6.1 defective mice (hetero-type); assay type: in vivo; settings: chronic treatment
Procedure: OBX mice were originally established as depression model mice although a deterioration of cognitive function was observed. Depression was analyzed by a tail-suspension method (a) and a forced swim method (b). The tail-suspension method is a method of pinching the tail of a mouse and hanging the mouse upside down. If the mouse hung has depression, immobility time is long. Since a normal mouse moves even if it is hung, the immobility time is short. In the forced swim method, a mouse is forced to swim in water in a beaker. A mouse having depression neither swims nor moves (just floating). Thus the immobility time is measured. Immobility time was long in OBX mice both in the tail-suspension method (a) and the forced swim method (b). The immobility time of a TP-014 chronic administration group (2 weeks, in the same administration method as that previously mentioned) was improved.
Immobility time of Kir6.1 defective mice (hetero-type, n=5 per group) was measured by the tail-suspension method (a) and the forced swim method (b) in the same manner as in FIGS. 11a and 11b. The hetero-type mice are the mice in which the expression level of Kir6.1 channel is half (the homo type mice develops arrhythmia after birth and dies) in contrast to the homo type mice (complete defective mice). […] The chronic treatment with TP-014 was not effective. […]

outward potassium current (Kir6.2 channel): suppressed
SMILES: O=C(N[C@@H](c1ccccc1)[C@H]1[C@H]2C[C@@H]3C[C@](Cl)(C2)C[C@@]1(OC(=O)C(F)(F)F)C3)C(F)(F)F [TP-014, (1S,2R,3S,5S,7S)-5-chloro-2-((R)-phenyl(2,2,2-trifluoroacetamido)methyl)adamantan-1-yl 2,2,2-trifluoroacetate]
blood glucose level (ob/ob): significantly decreased | acceleration of anxiety-like symptom [1]: improve acceleration of anxiety-like symptom | anxiety-like symptoms [2]: no improvement effect | depression-like symptom, immobility time in Kir6.1 defective mice (Kir6.1 defective mice): not effective
